Measurements from US9937225B2, “Topical formulations and uses thereof” (OCULAR TECHNOLOGIES SARL, priority 2012, dated 2018).

How the values were obtained:
[1] = Mixed nanomicellar size and polydispersity index (Zetasizer); assay type: physicochemical; details: solvent evaporation; HCO-60 4 wt %, Octoxynol-40 0.01 wt %, 1001 initially added 0.120 wt %
Method: The formulation size and polydispersity index were determined with Zetasizer, Malvern Instruments, NJ. In brief, approximately 1 ml of each formulation was transferred to a cuvette and placed in the instrument. A laser beam of light was used to determine the mixed nanomicellar size.
Weight percent of drug loaded into MNF was determined following the method for entrapment efficiency. Size and polydispersity index of the formulations was determined with Malvern zetasizer as described above. The formulations appear clear and have small size and narrow size distribution.

[2] = Visual appearance of mixed nanomicellar formulation; assay type: physicochemical; details: for Final formulation / Resuspend in water / Final formulation (make up with 2X buffer containing 0.01% Oc-40): 1001 4 wt %; for Result: solvent evaporation, HCO-60 4 wt %, Octoxynol-40 0.01 wt %
Method: Mixed nanomicellar formulation encapsulating compound 1001 was prepared by solvent evaporation method in two steps: 1) Preparation of basic formulation and 2) rehydration. In step one, compound 1001, HCO-60 and octoxynol-40 were dissolved separately in 0.3 mL of ethyl acetate. These three solutions were mixed together in 15-mL centrifuge tube. The resultant mixture was vortexed to obtain a homogenous solution. Ethyl acetate solvent was removed with speed vacuum to obtain a solid thin film. The residue was kept overnight under high vacuum at room temperature to remove residual organic solvent. In step two, the resultant thin film was hydrated with 1 mL of double distilled deionized water by vortexing the solution. The rehydrated formulation was suspended in 2× phosphate buffer solution, (pH 6.5). It was filtered through 0.2 μm nylon filter membrane to remove the unentrapped drug aggregates and other foreign particulates. […]
The preparation of MNF encapsulating compound 1001 (neat oil) can be divided into two steps. As an example for the development of 3.0 wt % HCO-40 or HCO-60 MNF encapsulating 0.4% compound 1001 is described below. […] To this melt polymer compound 1001 (˜20 mg), thermostated at 40° C., was added and mixed for homogenous distribution. […] (in refrigerator).
This aqueous solution was allowed to reach room temperature, under natural conditions. The pH of the solution was adjusted to 5.5 and the volume was made up with 2× phosphate buffer saline (pH 5.5) containing octoxynol-40 (0.01 wt %) and PVP-K-90 (1.2 wt %). The formulation was filtered through 0.2 μm nylon filter to remove any foreign material and obtain a clear homogenous aqueous RX-1001 formulation.
The results obtained for physical appearance of the mixture, different phases, at different temperatures and appearance of final formulation are summarized in Tables 2a-2c. […]

[3] = Ocular tissue distribution of compound 1001 nanomicellar formulations (LC-MS/MS); assay type: in vivo, New Zealand White Rabbits; details: rabbits, topical ocular administration
Method: A study was conducted in rabbits to test the tolerance and ocular tissue distribution of two nanomicellar formulations of compound 1001 (RX10045) against matching placebos (Table 6a and 6b) and balanced saline solution (BSS). Healthy New Zealand female white rabbits (2-3 kg) were used for this study. One drop (approximately 35 μL) of study drug was applied o.d. 4×/day at two hour intervals for 5 days. One drop of BSS was applied to the contralateral eye.
Selected ocular fluids/tissues (aqueous humor, vitreous humor, conjunctiva, cornea, iris-ciliary body, lens, retina/choroid, and sclera) collected from two rabbits each in the RX-10045 (0.15% in HCO-60, 0.1% in HCO-40) treatment groups, and from one rabbit in each of the matching placebo groups, were assayed for compound 1001 and another resolvin by liquid chromatography-tandem mass spectrometry (LC-MS/MS). Warfarin-d5 and 5-HDA were used as internal standards for the analysis of RX-10045 and its active metabolite, RX-10008, respectively, in aqueous humor and vitreous humor. For the other ocular tissues (solid tissues), warfarin-d5 and phenyl acetic acid-d5 (PAA-d5) were used as the internal standards for compound 1001 and RX-10008, respectively. The analytical range for the solid tissues were 0.125-100 ng. The results of the solid tissue analyses were converted to ng/g by correcting for the amount of tissue analyzed.

[4] = melt at 40° C., cooled to room temperature, HCO-40 0.5 wt %
[5] = melt at 40° C., cooled to room temperature, HCO-40 0.75 wt %
[6] = melt at 40° C., cooled to room temperature, HCO-40 1.0 wt %
[7] = melt at 40° C., cooled to room temperature, HCO-40 1.25 wt %
[8] = melt at 40° C., cooled to room temperature, HCO-40 1.5 wt %
[9] = melt at 40° C., cooled to room temperature, HCO-40 1.75 wt %
[10] = melt at 40° C., cooled to room temperature, HCO-40 2.0 wt %
[11] = melt at 40° C., cooled to room temperature, HCO-40 2.25 wt %
[12] = melt at 40° C., cooled to room temperature, HCO-40 2.5 wt %
[13] = melt at 40° C., cooled to room temperature, HCO-40 2.75 wt %
[14] = melt at 40° C., cooled to room temperature, HCO-40 3.0 wt %
[15] = melt at 40° C., cooled to room temperature, HCO-40 4.0 wt %

C#CC[C@@H](O)/C=C/C=C/C#C[C@@H](O)CCCC(=O)OC(C)C [compound 1001]
Polydispersity Index [1]: 0.320 | Final formulation [2, 4]: Emulsion | Resuspend in water [2, 4]: Emulsion | Final formulation [2, 5]: Emulsion | Resuspend in water [2, 5]: Emulsion | Final formulation [2, 6]: Emulsion | Resuspend in water [2, 6]: Emulsion | Final formulation [2, 7]: Emulsion | Resuspend in water [2, 7]: Emulsion | Final formulation [2, 8]: Emulsion | Resuspend in water [2, 8]: Emulsion | Final formulation [2, 9]: Emulsion | Resuspend in water [2, 9]: Emulsion | Final formulation [2, 10]: Emulsion | Resuspend in water [2, 10]: Emulsion | Final formulation [2, 11]: Emulsion | Resuspend in water [2, 11]: Emulsion | Final formulation [2, 12]: Yellow color | Resuspend in water [2, 12]: Yellow | Final formulation [2, 13]: Pale yellow | Resuspend in water [2, 13]: Pale yellow | Final formulation [2, 14]: Clear | Resuspend in water [2, 14]: Clear | Final formulation [2, 15]: Clear | Resuspend in water [2, 15]: Clear | Resuspend in water ([2]; melt cooled to 25° C., placed at 4° C., back to room temperature, water at 40° C., HCO-40 0.5 wt %): Emulsion | Resuspend in water ([2]; melt cooled to 25° C., placed at 4° C., back to room temperature, water at 40° C., HCO-40 0.75 wt %): Emulsion | Resuspend in water ([2]; melt cooled to 25° C., placed at 4° C., back to room temperature, water at 40° C., HCO-40 1.0 wt %): Emulsion | Resuspend in water ([2]; melt cooled to 25° C., placed at 4° C., back to room temperature, water at 40° C., HCO-40 1.25 wt %): Emulsion | Resuspend in water ([2]; melt cooled to 25° C., placed at 4° C., back to room temperature, water at 40° C., HCO-40 1.5 wt %): Emulsion | Resuspend in water ([2]; melt cooled to 25° C., placed at 4° C., back to room temperature, water at 40° C., HCO-40 1.75 wt %): Emulsion | Resuspend in water ([2]; melt cooled to 25° C., placed at 4° C., back to room temperature, water at 40° C., HCO-40 2.0 wt %): Emulsion | Resuspend in water ([2]; melt cooled to 25° C., placed at 4° C., back to room temperature, water at 40° C., HCO-40 2.25 wt %): Emulsion | Resuspend in water ([2]; melt cooled to 25° C., placed at 4° C., back to room temperature, water at 40° C., HCO-40 2.5 wt %): Yellow | Resuspend in water ([2]; melt cooled to 25° C., placed at 4° C., back to room temperature, water at 40° C., HCO-40 2.75 wt %): Pale yellow | Resuspend in water ([2]; melt cooled to 25° C., placed at 4° C., back to room temperature, water at 40° C., HCO-40 3.0 wt %): Clear | Resuspend in water ([2]; melt cooled to 25° C., placed at 4° C., back to room temperature, water at 40° C., HCO-40 4.0 wt %): Clear | Final formulation ([2]; melt cooled to 25° C., placed at 4° C., back to room temperature, HCO-40 0.5 wt %): Emulsion | Final formulation ([2]; melt cooled to 25° C., placed at 4° C., back to room temperature, HCO-40 0.75 wt %): Emulsion | Final formulation ([2]; melt cooled to 25° C., placed at 4° C., back to room temperature, HCO-40 1.0 wt %): Emulsion | Final formulation ([2]; melt cooled to 25° C., placed at 4° C., back to room temperature, HCO-40 1.25 wt %): Emulsion | Final formulation ([2]; melt cooled to 25° C., placed at 4° C., back to room temperature, HCO-40 1.5 wt %): Emulsion | Final formulation ([2]; melt cooled to 25° C., placed at 4° C., back to room temperature, HCO-40 1.75 wt %): Emulsion | Final formulation ([2]; melt cooled to 25° C., placed at 4° C., back to room temperature, HCO-40 2.0 wt %): Emulsion | Final formulation ([2]; melt cooled to 25° C., placed at 4° C., back to room temperature, HCO-40 2.25 wt %): Emulsion | Final formulation ([2]; melt cooled to 25° C., placed at 4° C., back to room temperature, HCO-40 2.5 wt %): Yellow color | Final formulation ([2]; melt cooled to 25° C., placed at 4° C., back to room temperature, HCO-40 2.75 wt %): Very pale yellow | Final formulation ([2]; melt cooled to 25° C., placed at 4° C., back to room temperature, HCO-40 3.0 wt %): Clear | Final formulation ([2]; melt cooled to 25° C., placed at 4° C., back to room temperature, HCO-40 4.0 wt %): Clear | Final formulation (make up with 2X buffer containing 0.01% Oc-40) ([2]; melt method, HCO-60 1.0 wt %): Emulsion | Resuspend in water ([2]; melt method, HCO-60 1.0 wt %, water at 40°): Emulsion | Final formulation (make up with 2X buffer containing 0.01% Oc-40) ([2]; melt method, HCO-60 2.0 wt %): Pale yellow | Resuspend in water ([2]; melt method, HCO-60 2.0 wt %, water at 40°): Forms pale | Final formulation (make up with 2X buffer containing 0.01% Oc-40) ([2]; melt method, HCO-60 2.25 wt %): Pale yellow | Resuspend in water ([2]; melt method, HCO-60 2.25 wt %, water at 40°): Forms pale | Final formulation (make up with 2X buffer containing 0.01% Oc-40) ([2]; melt method, HCO-60 2.5 wt %): Pale yellow | Resuspend in water ([2]; melt method, HCO-60 2.5 wt %, water at 40°): Forms very | Final formulation (make up with 2X buffer containing 0.01% Oc-40) ([2]; melt method, HCO-60 2.75 wt %): Clear solution | Resuspend in water ([2]; melt method, HCO-60 2.75 wt %, water at 40°): Forms very | Final formulation (make up with 2X buffer containing 0.01% Oc-40) ([2]; melt method, HCO-60 3.0 wt %): Clear solution | Resuspend in water ([2]; melt method, HCO-60 3.0 wt %, water at 40°): Clear solution | Final formulation (make up with 2X buffer containing 0.01% Oc-40) ([2]; melt method, HCO-60 3.5 wt %): Clear solution | Resuspend in water ([2]; melt method, HCO-60 3.5 wt %, water at 40°): Clear solution | Final formulation (make up with 2X buffer containing 0.01% Oc-40) ([2]; melt method, HCO-60 4.0 wt %): Clear solution | Resuspend in water ([2]; melt method, HCO-60 4.0 wt %, water at 40°): Clear solution | Result ([2]; 1001 initially added 0.035 wt %): Clear/transparent | Result ([2]; 1001 initially added 0.070 wt %): Clear/transparent | Result ([2]; 1001 initially added 0.095 wt %): Clear/transparent | Result ([2]; 1001 initially added 0.120 wt %): Pale yellow color | Result ([2]; 1001 initially added 0.250 wt %): Yellow color | Result ([2]; 1001 initially added 0.300 wt %): Yellow color | Result ([2]; 1001 initially added 0.400 wt %): Yellow color | Hydrolysis to active metabolite RX-10008 in ocular tissues [3]: rapidly hydrolyzed
